The text below walks through data of patent publication US20240360101A1, “PHARMACEUTICAL SALTS OF A CHK-1 INHIBITOR” (SENTINEL ONCOLOGY LIMITED, priority 2021, published 2024).

One may read the IC50 as the midpoint of a concentration-inhibition curve.

The nature of data set [1]: Gravimetric vapour sorption (GVS). Conditions: for GVS weight loss, initial desorption cycle: from 50% RH to 0% RH; for GVS weight loss, initial desorption cycle / GVS water gain, subsequent sorption cycle: 25° C.; for GVS water gain, subsequent sorption cycle: up to 90% RH. It is filed as physicochemical. Here is the method: Sorption isotherms were obtained using a Hiden Isochema moisture sorption analyser (model IGAsorp), controlled by IGAsorp Systems Software V6.50.48. The sample was maintained at a constant temperature (25° C.) by the instrument controls. The humidity was controlled by mixing streams of dry and wet nitrogen, with a total flow of 250 ml·min−. The instrument was verified for relative humidity (RH) content by measuring three calibrated Rotronic salt solutions (10-50-88%). The weight change of the sample was monitored as a function of humidity by a microbalance (accuracy+/−0.005 mg). A defined amount of sample was placed in a tared mesh stainless steel basket under ambient conditions. A full experimental cycle typically consisted of three scans (sorption, desorption and sorption) at a constant temperature (25° C.) and 10% RH intervals over a 0-90% range (60 minutes for each humidity level).

A short description of data set [2]: Solubility of the salts in biorelevant media. It is filed as physicochemical. Conditions: 25° C., 24 h, HPLC; for solubility FaSSGF (pH 1.37): Fasted State Simulated Gastric Fluid; for solubility FaSSIF (pH 6.71): Fasted State Simulated Intestinal Fluid; for solubility FeSSIF (pH 5.14): Fed State Simulated Intestinal Fluid. Here is the method:
Biorelevant media (DI H2O, FeSSIF, FaSSIF and FaSSGF) (2 mL) was charged. Samples were left to equilibrate (25° C.) over 24 h. Solubility measurements were taken using HPLC (see Method 1 above).

Data set [3] in a line: Two-week stability (HPLC purity). It counts as physicochemical. Here is the method: HPLC analysis was carried out on an Agilent 1110/1200 series HPLC system. The column used was an Triart C18; 150×4.6 mm, 3.0 μm particle size (Ex Waters, PN: 186004644). The flow rate was 1.0 mL/min. Mobile phase A was Water:Trifluoroacetic acid (100:0.1%) and mobile phase B was Acetonitrile:Trifluoroacetic acid (100:0.1%). Detection was by UV at 302 nm. The injection volume was 5 μL, column temperature 40° C. and the following gradient was used: […]
Experimental: Maleate salt pattern B (30 mg) was placed into separate 15 mL type I glass vials. To these vials, a HDPE plastic cap was loosely attached to allow the ingress of moisture. The vials were then placed into ICH rated stability cabinets at 25° C./60% RH and 40° C./75% RH and in cold storage at 2-8° C. Following 2 weeks of storage these samples were removed from the stability cabinets and cold storage and the chemical purity assessed by HPLC (method 2). The relevant data was collected using a wavelength of 302 nm. The samples were prepared in MeCN:water (1:1).

Data set [4] is described as follows: Dynamic vapour sorption (DVS) analysis of maleate salt Pattern B. It is filed as physicochemical. The protocol:
A defined amount of the maleate salt Pattern B was placed in a tared mesh stainless steel basket under ambient conditions. A full experimental cycle consisted of […] (desorption, sorption repeat and desorption) at a constant temperature (25° C.) and 10% RH intervals over a 0-90% range (60 minutes for each humidity level).
Post cycle, the material was isolated at 0% RH and tested for crystallinity and then held at 90% RH for a minimum of 3 hours and re-tested for changes in crystallinity.

The next data set has as its system MIA PaCa-2 cells. As to the kind of experiment: Gemcitabine combination cell assay. It is filed as cell-based. Here is the method:
Exponentially growing MIA PaCa-2 (ATCC CRL-1420) cells are treated with trypsin to remove cells from the plate surface. Approximately 10,000 cells/well are plated in 96 well plates in RPMI containing 10% fetal bovine serum, 1% sodium pyruvate and 1% L-GlutaMax. Cells are allowed to adhere to the plate surface overnight. Serial half-log dilutions of Chk1 inhibitor test compounds and gemcitabine are made with a final highest concentration of 3000 nM and 100 nM, respectively. Chk1 inhibitors and gemcitabine are combined so that each concentration of Chk1 inhibitor is added to each concentration of gemcitabine. Each drug is also tested as a single agent. Drugs are added to adherent cells (in duplicate) and incubated for 72h. At 72h the cells are treated with Promega Cell Titer Glo reagent for approximately 15 minutes. Luminescence (relative light units, RLU) is recorded using a BMG Polarstar Omega plate reader. The single agent concentration that results in a 50% reduction in total signal (IC50) is calculated using PRISM software and a four-parameter non-linear regression curve fit. For combination studies the RLUs are plotted using PRISM on an XY plot with the gemcitabine concentration on the X axis and RLU on the Y axis. The RLU for each concentration of Chk1 inhibitor is plotted as a function of gemcitabine concentration. The IC50 for gemcitabine alone and at each concentration of Chk1 is determined using a four-parameter non-linear regression curve fit. The approximate concentration of Chk1 inhibitor that results in a two and ten-fold reduction in the IC50 of gemcitabine alone is calculated as an indication of synergistic potency.

As for `COc1cc(C2(F)CCN(C)CC2)ccc1-c1cc(Nc2cnc(C#N)cn2)n[nH]1` [maleate pattern B, 5-[[5-[4-(4-fluoro-1-methyl-4-piperidyl)-2-methoxy-phenyl]-1H-pyrazol-3-yl]amino]pyrazine-2-carbonitrile], the “Aqueous solubility mg/mL 24 h” value is reported as 1.4 mg/mL. Moreover, the “crystalline form (XRPD) after GVS at extremes of humidity” value in data set [1] (0% RH and 90% RH, result in words) was 0% RH converts to pattern A, 90% RH no change. Moreover, in data set [1], the “GVS weight loss, initial desorption cycle” value is 2.5 wt % and the “GVS water gain, subsequent sorption cycle” value worked out at 4%. For the same molecule, in data set [2], the “solubility FaSSGF (pH 1.37)” value was 3.97 mg/mL, the “solubility FaSSIF (pH 6.71)” value is 0.07 mg/mL and the “solubility FeSSIF (pH 5.14)” value is on record as 0.57 mg/mL. Also, the “HPLC purity (HPLC method 2)” value in data set [3] (T = 0) was 96.85. For the same molecule, in data set [3] (T = 2 weeks, 2-8° C.), the “HPLC purity (HPLC method 2)” value came out at 96.85. Further, the “HPLC purity (HPLC method 2)” value in data set [3] (T = 2 weeks, 25° C./60% RH) turned out to be 96.99. For the same molecule, in data set [3] (T = 2 weeks, 40° C./75% RH), the “HPLC purity (HPLC method 2)” value is 96.98. In addition, the stability on storage result in data set [3] (two weeks at 25° C./60% RH, 40° C./75% RH and 2-8° C., result in words) is recorded as “stable”. The “DVS moisture associated before the first desorption” value in data set [4] (25° C., ambient start) is “ca. 2.8 wt %”. In addition, the “DVS main increase in weight, first sorption” value in data set [4] (between 20 and 30% RH) was “ca. 2 wt %”. Also, the “crystalline form (XRPD) after DVS” value in data set [4] (isolated at 0% RH, then held at 90% RH, result in words) was “mixed phase at 0% RH and pattern B at 90% RH”.
Turning to `COc1cc(C2(F)CCN(C)CC2)ccc1-c1cc(Nc2cnc(C#N)cn2)n[nH]1` [compound of formula (1), 5-[[5-[4-(4-fluoro-1-methyl-4-piperidyl)-2-methoxy-phenyl]-1H-pyrazol-3-yl]amino]pyrazine-2-carbonitrile], the “Aqueous solubility mg/mL 24 h” value is recorded as 0.39 mg/mL. In addition, in data set [1] (listed as free base), the “GVS weight loss, initial desorption cycle” value is 2 wt % and the “GVS water gain, subsequent sorption cycle” value was 8%. In addition, the IC50 with MIA PaCa-2 cells (Homo sapiens, compound alone, MIA PaCa-2 cells, 72h, Cell Titer Glo, read-out: Chk1 IC50) was 144 nM. For the same molecule, in the data set with MIA PaCa-2 cells (approximate concentration giving a 10-fold reduction in the IC50 of gemcitabine alone, MIA PaCa-2, 72h), the “10 × LS” value is recorded as ~100 nM. In addition, in the data set on MIA PaCa-2 cells (approximate concentration giving a two-fold reduction in the IC50 of gemcitabine alone, MIA PaCa-2, 72h), the “2 × LS” value was ~3 nM. Also, in data set [2] (listed as free base), the “solubility FaSSGF (pH 1.37)” value was 2.93 mg/mL, the “solubility FaSSIF (pH 6.71)” value is 0.04 mg/mL and the “solubility FeSSIF (pH 5.14)” value is listed as 0.6 mg/mL.
